{"source": "paper PMC7377474", "about": "“Preclinical characterization of CPL302-253, a selective inhibitor of PI3Kδ, as the candidate for the inhalatory treatment and prevention of Asthma” (PLoS ONE, 2020)", "origin": "cited, not measured here", "target": "T1, hERG (Homo sapiens, UniProt Q12809)", "T1 construct": "purchased DiscoverX (Eurofins) SafetyScan44", "T1 sequence (Q12809 whole entry)": "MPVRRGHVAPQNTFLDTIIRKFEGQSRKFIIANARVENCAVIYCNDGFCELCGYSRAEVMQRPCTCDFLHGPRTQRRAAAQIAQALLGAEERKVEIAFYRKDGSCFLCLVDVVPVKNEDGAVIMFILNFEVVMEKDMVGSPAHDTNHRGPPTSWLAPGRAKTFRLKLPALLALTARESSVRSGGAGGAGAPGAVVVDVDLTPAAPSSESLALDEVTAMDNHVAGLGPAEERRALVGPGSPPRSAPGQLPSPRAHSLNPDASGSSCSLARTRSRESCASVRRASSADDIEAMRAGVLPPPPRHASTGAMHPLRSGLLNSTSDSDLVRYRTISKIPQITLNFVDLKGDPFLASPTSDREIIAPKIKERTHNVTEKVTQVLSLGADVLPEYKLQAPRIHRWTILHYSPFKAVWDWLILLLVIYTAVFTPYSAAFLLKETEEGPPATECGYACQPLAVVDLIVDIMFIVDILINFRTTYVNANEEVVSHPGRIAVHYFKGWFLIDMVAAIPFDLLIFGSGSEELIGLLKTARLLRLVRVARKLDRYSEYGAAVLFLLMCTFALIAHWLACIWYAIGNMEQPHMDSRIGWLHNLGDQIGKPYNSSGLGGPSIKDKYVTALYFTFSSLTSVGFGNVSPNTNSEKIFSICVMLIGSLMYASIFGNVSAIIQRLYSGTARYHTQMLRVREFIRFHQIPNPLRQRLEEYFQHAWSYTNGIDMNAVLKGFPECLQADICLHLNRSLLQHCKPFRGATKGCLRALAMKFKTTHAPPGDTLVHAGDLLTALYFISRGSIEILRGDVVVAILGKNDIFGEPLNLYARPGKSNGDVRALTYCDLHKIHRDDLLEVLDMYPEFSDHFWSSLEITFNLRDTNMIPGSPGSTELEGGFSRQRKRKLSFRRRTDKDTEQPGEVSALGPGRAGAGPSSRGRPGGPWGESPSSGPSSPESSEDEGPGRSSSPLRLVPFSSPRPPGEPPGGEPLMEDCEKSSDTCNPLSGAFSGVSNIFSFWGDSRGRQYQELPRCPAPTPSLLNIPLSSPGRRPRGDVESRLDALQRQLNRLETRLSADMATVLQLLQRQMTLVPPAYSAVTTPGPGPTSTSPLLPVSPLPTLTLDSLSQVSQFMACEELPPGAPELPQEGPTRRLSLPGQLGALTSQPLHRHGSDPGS", "details": "available preclinical data; cited from earlier work"}
{"compound": "CC(C)N1CCN(Cc2cnc(-c3cc(-c4cccc5[nH]ccc45)cc4[nH]ncc34)o2)CC1", "note": "[Nemiralisib]", "values": [{"measurement": "activity towards hERG", "value": "has activity towards hERG"}]}
